Assay results as given in paper PMC5357725, “Global update on the susceptibility of human influenza viruses to neuraminidase inhibitors, 2014–2015” (Antiviral Research, 2016).

Legend:
[1] = system: B/Victoria-lineage neuraminidase (NA); format: biochemical, influenza B/Victoria-lineage virus
[2] = system: B/Yamagata-lineage neuraminidase (NA); format: biochemical, influenza B/Yamagata-lineage virus

| Compound | inhibition class (NI, RI, HRI) [1] | inhibition class (NI, RI, HRI) [2] |
| --- | --- | --- |
| [H]/N=C(\N)N[C@H]1C=C(C(=O)O)O[C@@H]([C@H](OC)[C@H](O)CO)[C@@H]1NC(C)=O [Laninamivir, laninamivir] | NI (key: NI: B viruses <5-fold; RI: B viruses 5- to 50-fold; HRI: B viruses >50-fold) | NI (key: NI: B viruses <5-fold; RI: B viruses 5- to 50-fold; HRI: B viruses >50-fold) |
| CC(=O)N[C@H]1[C@H]([C@H](O)[C@H](O)CO)OC(C(=O)O)=C[C@@H]1N=C(N)N [Zanamivir, zanamivir] | NI (key: NI: B viruses <5-fold; RI: B viruses 5- to 50-fold; HRI: B viruses >50-fold) | – |
